Patent US6737383B1, “Herbicidal oxadiazolidines” (priority 1999, dated 2004)

Experiments:
bedstraw = test: Test B pre/postemergence bedstraw; format: in vivo, Galium aparine
Method in brief: (§1)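 Response is a visual 0-to-10 score relative to untreated plants, where 0 means no effect and 10 means complete control, taken twelve to sixteen days after application. Treatments went onto soil at planting and onto foliage of 1- to 4-leaf plants, using a surfactant-containing non-phytotoxic solvent.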

cocklebur = test: Test B pre/postemergence cocklebur; format: in vivo, Xanthium strumarium
Method in brief: as §1

purple nutsedge = test: Test B pre/postemergence purple nutsedge; format: in vivo, Cyperus rotundus
Method in brief: as §1

pigweed = test: Test B pre/postemergence pigweed; format: in vivo, Amaranthus retroflexus
Method in brief: as §1

duck salad = test: Test B flood test duck salad; format: in vivo, Heteranthera limosa
Method in brief: (§2)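 Read-out is a visual response score from 0 (no effect) to 10 (complete control), assigned by comparison with untreated controls. Treatment was applied at the 2-leaf stage, and plants stayed in the greenhouse for twelve to sixteen days before scoring.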

morningglory = test: Test B pre/postemergence morningglory; format: in vivo, Ipomoea hederacea
Method in brief: as §1

rice = test: Test B flood test rice; format: in vivo, Oryza sativa
Method in brief: as §2

sugar beet = test: Test B pre/postemergence sugar beet; format: in vivo, Beta vulgaris; details: for Plant response rating, Sugarbeets: Rate 250 g/ha
Method in brief: as §1

rape = test: Test B pre/postemergence rape; format: in vivo, Brassica napus
Method in brief: as §1

surinam grass = test: Test B pre/postemergence surinam grass; format: in vivo, Brachiaria decumbens
Method in brief: as §1

blackgrass = test: Test B pre/postemergence blackgrass; format: in vivo, Alopecurus myosuroides
Method in brief: as §1

giant foxtail = test: Test B pre/postemergence giant foxtail; format: in vivo, Setaria faberii
Method in brief: as §1

bamyardgrass = test: Test B flood test barnyardgrass; format: in vivo, Echinochloa crus-galli
Method in brief: as §2

velvetleaf = test: Test B pre/postemergence velvetleaf; format: in vivo, Abutilon theophrasti; details: for Plant response rating, Velvetleaf: Rate 250 g/ha
Method in brief: as §1

corn = test: Test B pre/postemergence corn; format: in vivo, Zea mays
Method in brief: as §1

[1] = Postemergence, Rate 62 g/ha, scale 0 to 10, 0 is no effect, 10 is complete control
[2] = Postemergence, Rate 250 g/ha, scale 0 to 10, 0 no effect, 10 complete control
[3] = Preemergence, Rate 62 g/ha, scale 0 to 10 (0 no effect, 10 complete control)
[4] = Preemergence, Rate 125 g/ha, scale 0 to 10 (0 no effect, 10 complete control)
[5] = Preemergence, Rate 250 g/ha, scale of 0 to 10 where 0 is no effect and 10 is complete control
[6] = Preemergence, Rate 500 g/ha, scale 0 to 10 (0 no effect, 10 complete control)
[7] = Rate 125 g/ha, Postemergence, scale 0 to 10, 0 no effect, 10 complete control
[8] = Postemergence, Rate 125 g/ha, scale of 0 to 10 where 0 is no effect and 10 is complete control
[9] = Rate 62 g/ha, Postemergence, scale of 0 to 10 where 0 is no effect and 10 is complete control
[10] = Rate 500 g/ha, Postemergence, scale 0 to 10, 0 no effect, 10 complete control
[11] = Rate 250 g/ha, headed Pre-emergence (flood test species), scale 0 to 10 (0 no effect, 10 complete control)
[12] = Rate 500 g/ha, headed Pre-emergence (flood test species), scale 0 to 10 (0 no effect, 10 complete control)
[13] = Rate 1000 g/ha, Pre-emergence (as headed), scale 0 to 10
[14] = Rate 2000 g/ha, Pre-emergence (as headed), scale 0 to 10
[15] = Preemergence, Rate 125 g/ha, 0 is no effect, 10 is complete control
[16] = Preemergence, scale of 0 to 10 where 0 is no effect and 10 is complete control
[17] = Postemergence, scale 0 to 10, 0 is no effect, 10 is complete control

CC(C)N(C(=O)n1oc(=O)n(C(C)(C)C)c1=O)c1ccc(Cl)cc1 [Compound 118]
4: Morningglory plant response rating (morningglory; [8]) | Blackgrass plant response rating (blackgrass; [8]) | Velvetleaf plant response rating (velvetleaf; [6])
10: Redroot pigweed plant response rating (pigweed; [6]) | B. signalgrass plant response rating (surinam grass; [6]) | Plant response rating, Giant foxtail (giant foxtail; [4]) | Plant response rating, Giant foxtail (giant foxtail; [5]) | Giant foxtail plant response rating (giant foxtail; [6])
6: Barnyardgrass plant response rating (bamyardgrass; Rate 2000 g/ha, Pre-emergence (as headed), scale 0 to 10, 0 no effect, 10 complete control)
3: Plant response rating, B. signalgrass (surinam grass; [5]) | Plant response rating, Blackgrass (blackgrass; [5]) | Barnyardgrass plant response rating (bamyardgrass; [13]) | Corn plant response rating (corn; [10])
1: Morningglory plant response rating (morningglory; [9]) | Giant foxtail plant response rating (giant foxtail; [9]) | Plant response rating, Barnyardgrass (bamyardgrass; [12])
9: B. signalgrass plant response rating (surinam grass; Rate 500 g/ha, Postemergence, scale of 0 to 10 where 0 is no effect and 10 is complete control) | Blackgrass plant response rating (blackgrass; [10]) | Giant foxtail plant response rating (giant foxtail; [2]) | Giant foxtail plant response rating (giant foxtail; [3]) | Giant foxtail plant response rating (giant foxtail; [10])
8: Giant foxtail plant response rating (giant foxtail; [8])
0: Bedstraw plant response rating (bedstraw; [1]) | Bedstraw plant response rating (bedstraw; [2]) | Bedstraw plant response rating (bedstraw; [3]) | Plant response rating, Bedstraw (bedstraw; [4]) | Plant response rating, Bedstraw (bedstraw; [5]) | Bedstraw plant response rating (bedstraw; [6]) | Bedstraw plant response rating (bedstraw; [7]) | Cocklebur plant response rating (cocklebur; [8]) | Cocklebur plant response rating (cocklebur; [2]) | Cocklebur plant response rating (cocklebur; [3]) | Plant response rating, Cocklebur (cocklebur; [4]) | Plant response rating, Cocklebur (cocklebur; [5]) | Cocklebur plant response rating (cocklebur; [6]) | Cocklebur plant response rating (cocklebur; [9]) | Cocklebur plant response rating (cocklebur; [10]) | Nutsedge plant response rating (purple nutsedge; [8]) | Nutsedge plant response rating (purple nutsedge; [2]) | Nutsedge plant response rating (purple nutsedge; [3]) | Plant response rating, Nutsedge (purple nutsedge; [4]) | Plant response rating, Nutsedge (purple nutsedge; [5]) | Nutsedge plant response rating (purple nutsedge; [6]) | Nutsedge plant response rating (purple nutsedge; [9]) | Nutsedge plant response rating (purple nutsedge; [10]) | Redroot pigweed plant response rating (pigweed; [8]) | Redroot pigweed plant response rating (pigweed; [3]) | Plant response rating, Redroot pigweed (pigweed; [4]) | Redroot pigweed plant response rating (pigweed; [9]) | Plant response rating, Redroot pigweed (pigweed; Rate 250 g/ha, Postemergence, scale 0 to 10, 0 is no effect, 10 is complete control) | Redroot pigweed plant response rating (pigweed; [10]) | Ducksalad plant response rating (duck salad; [11]) | Plant response rating, Ducksalad (duck salad; [12]) | Ducksalad plant response rating (duck salad; [13]) | Ducksalad plant response rating (duck salad; [14]) | Morningglory plant response rating (morningglory; [3]) | Plant response rating, Morningglory (morningglory; [4]) | Plant response rating, Morningglory (morningglory; [5]) | Morningglory plant response rating (morningglory; [6]) | Rice plant response rating (rice; [11]) | Plant response rating, Rice (rice; [12]) | Rice plant response rating (rice; [13]) | Rice plant response rating (rice; [14]) | Sugarbeets plant response rating (sugar beet; [8]) | Sugarbeets plant response rating (sugar beet; [3]) | Sugarbeets plant response rating (0 to 10 scale) (sugar beet; [15]) | Plant response rating, Sugarbeets (sugar beet; [16]) | Sugarbeets plant response rating (sugar beet; [6]) | Sugarbeets plant response rating (sugar beet; [9]) | Plant response rating, Sugarbeets (sugar beet; [17]) | Rape plant response rating (rape; [8]) | Rape plant response rating (rape; [2]) | Rape plant response rating (rape; [3]) | Plant response rating, Rape (rape; [4]) | Plant response rating, Rape (rape; [5]) | Rape plant response rating (rape; [6]) | Rape plant response rating (rape; [9]) | Rape plant response rating (rape; [10]) | B. signalgrass plant response rating (surinam grass; [1]) | B. signalgrass plant response rating (surinam grass; [3]) | B. signalgrass plant response rating (surinam grass; [7]) | Blackgrass plant response rating (blackgrass; [3]) | Blackgrass plant response rating (blackgrass; [9]) | Barnyardgrass plant response rating (bamyardgrass; [11]) | Velvetleaf plant response rating (velvetleaf; [8]) | Velvetleaf plant response rating (velvetleaf; [3]) | Velvetleaf plant response rating (0 to 10 scale) (velvetleaf; [15]) | Plant response rating, Velvetleaf (velvetleaf; [16]) | Velvetleaf plant response rating (velvetleaf; [9]) | Plant response rating, Velvetleaf (velvetleaf; [17]) | Velvetleaf plant response rating (velvetleaf; [10]) | Corn plant response rating (corn; [8]) | Corn plant response rating (corn; [2]) | Corn plant response rating (corn; [3]) | Plant response rating, Corn (corn; [4]) | Plant response rating, Corn (corn; [5]) | Corn plant response rating (corn; [6]) | Corn plant response rating (corn; [9])
2: Plant response rating, Redroot pigweed (pigweed; [5]) | Sugarbeets plant response rating (sugar beet; [10]) | B. signalgrass plant response rating (surinam grass; [2]) | Plant response rating, B. signalgrass (surinam grass; [4]) | Plant response rating, Blackgrass (blackgrass; [4])
5: Morningglory plant response rating (morningglory; [2])
7: Morningglory plant response rating (morningglory; [10]) | Blackgrass plant response rating (blackgrass; [2]) | Blackgrass plant response rating (blackgrass; [6])
